Measured values: PubChem BioAssay AID1963981 (Molecular Pharmacology Branch, DTP, NCI, 2024)

Test system: 354836-022-R-J1-PDC multicell spheroid viability
Assay: Anticancer human tumor 354836-022-R-J1-PDC patient-derived head and neck squamous cell carcinoma cell line growth inhibition [PI3K]
Settings: for IC50: curve of first compound; for viability, T/C: stronger effect = lower value
Source text: Combinatorial screen of targeted agents with the PI3K inhibitors inavolisib, alpelisib, duvelisib, and copanlisib in multi-cell type tumor spheroids
A high-throughput screen of multi-cell type tumor spheroids was designed to identify active combinations of targeted small molecules and PI3K pathway inhibitors. Complex spheroids include a stromal component modeled by human endothelial cells (HUVEC) and fibroblasts modeled by human mesenchymal stem cells (MSCs). The concentration ranges selected for each drug and investigational agent were based upon clinically achievable concentrations if the clinical Cmax of the agent was known.
Compounds. The drugs and investigational agents: inavolisib (NSC800729), alpelisib (NSC765974), duvelisib (NSC772469), copanlisib (NSC816437), ipatasertib (NSC767898), afuresertib (NSC778305), talazoparib (NSC767125), sapanisertib (NSC764658), selumetinib (NSC741078), tovorafenib (DAY101, NSC766906), vemurafenib (NSC761431), ravoxertinib (NSC781343), sotorasib (NSC818433), MRTX1133 (NSC 836407), abemaciclib (NSC 768073), palbociclib (NSC758247), venetoclax (NSC 766270), SY5609 (NSC837396), enzalutamide (NSC755605), and darolutamide (NSC825331), were obtained from the National Cancer Institute (NCI) Developmental Therapeutics Program Chemical Repository. The FDA-approved anticancer drug set is available from the NCI Developmental Therapeutics Program. […] The stock solutions were prepared in dimethyl sulfoxide (DMSO, Sigma-Aldrich, St. Louis, MO, cat. D2650) at 800-fold the tested concentration and stored at -70 degrees C prior to their use. All drugs and investigational agents were tested over a range starting from a high concentration at or near the clinical Cmax and decreasing in half-log increments. If the clinical Cmax for an agent had not been determined, the highest concentration tested was 10 microM.
Cell Culture. All cells were maintained in an incubator at 37 degrees C and 5% CO2 with 95% humidity. The PDC lines were cultured according to standard operating procedures established by the NCI PDMR (https://pdmr.cancer.gov/sops/default.htm). All PDCs were thawed and cultured in Matrigel-coated flasks prepared with a working solution of 1X Ham's F-12 nutrient mix, without supplementation (Invitrogen, Waltham, MA, cat. 11765054), 100 U/mL penicillin-streptomycin (Invitrogen, cat. 15140122), and 2.5% Matrigel (Corning Inc., Corning, NY, cat. 354248) for the first three passages. The 354836-022-R-J1-PDC, 475296-252-R-J1-PDC, and 997726-040-R-J2-PDC lines were cultured in 6A media, which includes advanced DMEM/F-12 (Thermo Fisher Scientific, cat. 12634028), 10 mM HEPES (Thermo Fisher Scientific, cat. 15630080), 1X GlutaMAX supplement (Thermo Fisher Scientific, cat. 35050061), 0.1 mg/mL primocin (InvivoGen, San Diego, CA, cat. ant-pm-2), 10% defined fetal bovine serum, heat inactivated (HyClone Laboratories Inc., Logan, UT, cat. SH30070.03HI), 50% L-WRN conditioned media (ATCC, cat. CRL-3276), 1.25 mM N-Acetyl-L-cysteine (Sigma-Aldrich, cat. A9165), 10 mM nicotinamide (Sigma-Aldrich, cat. N0636), 1X B-27 supplement (Thermo Fisher Scientific, cat. 17504044), 1X N-2 supplement (Thermo Fisher Scientific, cat. 17502048), and 10 microM Y-27632 dihydrochloride (Tocris Bioscience, Bristol, United Kingdom, cat. 1254). The 624824-186-R-J2-PDC line was cultured in 6C/Colon 1B media, which includes all 6A media components plus 50 ng/mL human EGF recombinant protein (Thermo Fisher Scientific, cat. PHG0311). […]

[1] = second compound 0.0316 µM, first compound 0.00316 µM
[2] = second compound 0.0316 µM, first compound 0.01 µM
[3] = second compound 0.0316 µM, first compound 0.0316 µM
[4] = second compound 0.0316 µM, first compound 0.1 µM
[5] = second compound 0.0316 µM, first compound 0.316 µM
[6] = second compound 0.0316 µM, first compound 1 µM
[7] = second compound 0.1 µM, first compound 0.00316 µM
[8] = second compound 0.1 µM, first compound 0.01 µM
[9] = second compound 0.1 µM, first compound 0.0316 µM
[10] = second compound 0.1 µM, first compound 0.1 µM
[11] = second compound 0.1 µM, first compound 0.316 µM
[12] = second compound 0.1 µM, first compound 1 µM
[13] = second compound 0.316 µM, first compound 0.00316 µM
[14] = second compound 0.316 µM, first compound 0.01 µM
[15] = second compound 0.316 µM, first compound 0.0316 µM
[16] = second compound 0.316 µM, first compound 0.1 µM
[17] = second compound 0.316 µM, first compound 0.316 µM
[18] = second compound 0.316 µM, first compound 1 µM
[19] = second compound 1 µM, first compound 0.00316 µM
[20] = second compound 1 µM, first compound 0.01 µM
[21] = second compound 1 µM, first compound 0.0316 µM
[22] = second compound 1 µM, first compound 0.1 µM
[23] = second compound 1 µM, first compound 0.316 µM
[24] = second compound 1 µM, first compound 1 µM
[25] = second compound 3.16 µM, first compound 0.00316 µM
[26] = second compound 3.16 µM, first compound 0.01 µM
[27] = second compound 3.16 µM, first compound 0.0316 µM
[28] = second compound 3.16 µM, first compound 0.1 µM
[29] = second compound 10 µM, first compound 0.00316 µM
[30] = second compound 10 µM, first compound 0.01 µM
[31] = second compound 10 µM, first compound 0.0316 µM
[32] = second compound 10 µM, first compound 0.1 µM
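Also: spheroids exposed to agents for seven days before the viability read.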

CCN1CCN(Cc2ccc(Nc3ncc(F)c(-c4cc(F)c5nc(C)n(C(C)C)c5c4)n3)nc2)CC1 + Cc1nc(NC(=O)N2CCCC2C(N)=O)sc1-c1ccnc(C(C)(C)C(F)(F)F)c1
IC50 (second compound 0.0316 µM): > 1000 nM
IC50 (second compound 0.1 µM): > 1000 nM
IC50 (second compound 0.316 µM): > 1000 nM
IC50 (second compound 1 µM): 455 nM
IC50 (second compound 3.16 µM): 322 nM
IC50 (second compound 10 µM): < 3.16 nM
viability, T/C [1]: 107%
viability, T/C [2]: 82.5%
viability, T/C [3]: 97.9%
viability, T/C [4]: 90.9%
viability, T/C [5]: 99.7%
viability, T/C [6]: 62.8%
viability, T/C [7]: 94.4%
viability, T/C [8]: 82.5%
viability, T/C [9]: 91.5%
viability, T/C [10]: 77.7%
viability, T/C [11]: 91.8%
viability, T/C [12]: 69.1%
viability, T/C [13]: 87.6%
viability, T/C [14]: 96.4%
viability, T/C [15]: 69.5%
viability, T/C [16]: 92%
viability, T/C [17]: 84.2%
viability, T/C [18]: 51.1%
viability, T/C [19]: 67.9%
viability, T/C [20]: 90.8%
viability, T/C [21]: 63.2%
viability, T/C [22]: 67.8%
viability, T/C [23]: 59.5%
viability, T/C [24]: 33.3%
viability, T/C [25]: 51.9%
viability, T/C [26]: 61.8%
viability, T/C [27]: 54.4%
viability, T/C [28]: 59.3%
viability, T/C (second compound 3.16 µM, first compound 0.316 µM): 49.8%
viability, T/C (second compound 3.16 µM, first compound 1 µM): 18.8%
viability, T/C [29]: 31.8%
viability, T/C [30]: 36.6%
viability, T/C [31]: 35%
viability, T/C [32]: 28.9%
viability, T/C (second compound 10 µM, first compound 0.316 µM): 25.2%
viability, T/C (second compound 10 µM, first compound 1 µM): 9.14%

CC(=O)c1c(C)c2cnc(Nc3ccc(N4CCNCC4)cn3)nc2n(C2CCCC2)c1=O + Cc1nc(NC(=O)N2CCCC2C(N)=O)sc1-c1ccnc(C(C)(C)C(F)(F)F)c1
IC50 (second compound 0.0316 µM): > 100 nM
IC50 (second compound 0.1 µM): > 100 nM
IC50 (second compound 0.316 µM): > 100 nM
IC50 (second compound 1 µM): > 100 nM
IC50 (second compound 3.16 µM): > 100 nM
IC50 (second compound 10 µM): < 0.316 nM
viability, T/C (second compound 0.0316 µM, first compound 0.000316 µM): 105%
viability, T/C (second compound 0.0316 µM, first compound 0.001 µM): 96.8%
viability, T/C [1]: 105%
viability, T/C [2]: 83.7%
viability, T/C [3]: 117%
viability, T/C [4]: 101%
viability, T/C (second compound 0.1 µM, first compound 0.000316 µM): 103%
viability, T/C (second compound 0.1 µM, first compound 0.001 µM): 91.8%
viability, T/C [7]: 92.9%
viability, T/C [8]: 92.8%
viability, T/C [9]: 89.4%
viability, T/C [10]: 111%
viability, T/C (second compound 0.316 µM, first compound 0.000316 µM): 84.1%
viability, T/C (second compound 0.316 µM, first compound 0.001 µM): 83.5%
viability, T/C [13]: 85.8%
viability, T/C [14]: 96.6%
viability, T/C [15]: 86.4%
viability, T/C [16]: 88.9%
viability, T/C (second compound 1 µM, first compound 0.000316 µM): 71%
viability, T/C (second compound 1 µM, first compound 0.001 µM): 89.5%
viability, T/C [19]: 74.6%
viability, T/C [20]: 73.3%
viability, T/C [21]: 73.5%
viability, T/C [22]: 85.2%
viability, T/C (second compound 3.16 µM, first compound 0.000316 µM): 63%
viability, T/C (second compound 3.16 µM, first compound 0.001 µM): 72.1%
viability, T/C [25]: 67.8%
viability, T/C [26]: 60%
viability, T/C [27]: 59.4%
viability, T/C [28]: 67.5%
viability, T/C (second compound 10 µM, first compound 0.000316 µM): 41%
viability, T/C (second compound 10 µM, first compound 0.001 µM): 37.3%
viability, T/C [29]: 35.7%
viability, T/C [30]: 35.4%
viability, T/C [31]: 34.9%
viability, T/C [32]: 39.7%

Cn1nccc1Nc1nccc(-c2ccn(C(CO)c3ccc(Cl)c(F)c3)c(=O)c2)n1 (stereo unspecified) + CC(Nc1ccc2c(c1)OCCn1cc(N3C(=O)OCC3C(F)F)nc1-2)C(N)=O
IC50 (second compound 0.00316 µM): > 10000 nM
IC50 (second compound 0.01 µM): > 10000 nM
IC50 (second compound 0.0316 µM): > 10000 nM
IC50 (second compound 0.1 µM): > 10000 nM
IC50 (second compound 0.316 µM): > 10000 nM
IC50 (second compound 1 µM): > 10000 nM
viability, T/C (second compound 0.00316 µM, first compound 0.0316 µM): 91.2%
viability, T/C (second compound 0.00316 µM, first compound 0.1 µM): 86.8%
viability, T/C (second compound 0.00316 µM, first compound 0.316 µM): 112%
viability, T/C (second compound 0.00316 µM, first compound 1 µM): 92.6%
viability, T/C (second compound 0.00316 µM, first compound 3.16 µM): 93.5%
viability, T/C (second compound 0.00316 µM, first compound 10 µM): 88.1%
viability, T/C (second compound 0.01 µM, first compound 0.0316 µM): 105%
viability, T/C (second compound 0.01 µM, first compound 0.1 µM): 92.5%
viability, T/C (second compound 0.01 µM, first compound 0.316 µM): 101%
viability, T/C (second compound 0.01 µM, first compound 1 µM): 95.1%
viability, T/C (second compound 0.01 µM, first compound 3.16 µM): 101%
viability, T/C (second compound 0.01 µM, first compound 10 µM): 88.5%
viability, T/C [3]: 103%
viability, T/C [4]: 92.4%
viability, T/C [5]: 88.7%
viability, T/C [6]: 88.6%
viability, T/C (second compound 0.0316 µM, first compound 3.16 µM): 127%
viability, T/C (second compound 0.0316 µM, first compound 10 µM): 98.2%
viability, T/C [9]: 74.2%
viability, T/C [10]: 100%
viability, T/C [11]: 94.6%
viability, T/C [12]: 88.7%
viability, T/C (second compound 0.1 µM, first compound 3.16 µM): 100%
viability, T/C (second compound 0.1 µM, first compound 10 µM): 98.4%
viability, T/C [15]: 59.9%
viability, T/C [16]: 73.3%
viability, T/C [17]: 75.2%
viability, T/C [18]: 72%
viability, T/C (second compound 0.316 µM, first compound 3.16 µM): 71.5%
viability, T/C (second compound 0.316 µM, first compound 10 µM): 71.8%
viability, T/C [21]: 58.8%
viability, T/C [22]: 50.1%
viability, T/C [23]: 55.4%
viability, T/C [24]: 62.4%
viability, T/C (second compound 1 µM, first compound 3.16 µM): 61.4%
viability, T/C (second compound 1 µM, first compound 10 µM): 41.4%
